Results as given in patent publication US20090048310A1, “AGENT FOR PREVENTION/TREATMENT OF DISEASE CAUSED BY ACYCLOVIR-RESISTANT HERPESVIRUS” (ASTELLAS PHARMA INC., priority 2005, published 2009).

How the values were obtained:
ACV-resistant HSV-1 = ACV-resistant HSV-1 infection lethal model in nude mice; assay type: in vivo, nude mouse (CD-1(ICR)-nu/nu); details: 100 mg/kg oral twice a day for 15 days
Experimental: ACV-resistant HSV-1 (3×10^6 pfu) was inoculated into the peritoneal cavity of each nude mouse (CD-1(ICR)-nu/nu, […], female, Charles River Japan) to cause infection with the virus. Each compound to be tested was made into a methyl cellulose suspension and orally administered at a dose of 100 mg/kg, twice a day for 15 days starting 1 hour after the infection (from 0 to 14 days after the infection).
During 17 days after the infection, death of the mice caused by ACV-resistant HSV-1 infection was observed every day, and the number of survived animals was counted.

HSV-1 strain WT-51 = assay: Cutaneous HSV-1 infection mouse model; assay type: in vivo, HR-1 hairless mouse; details: oral, 10 mg/kg twice a day for 5 days, scores for 17 days
Experimental: Using a cutaneous HSV-1 infection mouse model prepared in reference to the method of H. Machida et al. (Antiviral Res., 1992, 17, 133-143), the in vivo […] of the compounds of the present invention was tested using an animal model. The skin of each HR-1 hairless mouse [female, 7 weeks of age] was scratched lengthwise and breadthwise several times using a needle and a virus suspension (HSV-1 strain WT-51, 1.5×10^4 PFU/15 μl) was dropped to the scarified region for infection, while anesthetized with diethyl ether.
Tested compounds were administered orally as a methyl cellulose suspension, except for compounds marked with asterisk which were dissolved in 20% Cremophor EL (Nacalai Tesque)/20% polyethylene glycol (PEG) 400/60% H2O solution, starting at 3 hours after the infection, and then at a dose of 10 mg/kg twice a day for 5 days. The symptom of the skin lesion caused by HSV-1 infection were classified in the following scores for 17 days:
Score 0: no signs of infection.
Score 1: localized, barely perceptible small vesicles.
Score 2: slight vesicle spread.
Score 3: large patches of vesicles formed.
Score 4: zosteriform vesicles.
Score 5: large patches of ulcers formed.
Score 6: zosteriform with severe large ulcers.
Score 7: hind limb paralysis or death.
The AUC value was calculated from each group's mean disease score, and the disease inhibitory rate of the group administered with each test compound to the placebo group was calculated using the AUC.

[1] = dissolved in 20% Cremophor EL/20% PEG 400/60% H2O (asterisk)

CC(C)[C@H](N)C(=O)OCCOCn1cnc2c(=O)nc(N)[nH]c21 [VCV, valcyclovir, reference compound]
death suppressing effect (in words) (ACV-resistant HSV-1; 17 days after infection): clear death suppressing effect was not found | The number of survived animals (n = 10) (ACV-resistant HSV-1; day 0 after infection): 10 | The number of survived animals (n = 10) (ACV-resistant HSV-1; day 1 after infection): 10 | The number of survived animals (n = 10) (ACV-resistant HSV-1; day 2 after infection): 10 | The number of survived animals (n = 10) (ACV-resistant HSV-1; day 4 after infection): 10 | The number of survived animals (n = 10) (ACV-resistant HSV-1; day 5 after infection): 10 | The number of survived animals (n = 10) (ACV-resistant HSV-1; day 6 after infection): 10 | The number of survived animals (n = 10) (ACV-resistant HSV-1; day 7 after infection): 9 | The number of survived animals (n = 10) (ACV-resistant HSV-1; day 8 after infection): 8 | The number of survived animals (n = 10) (ACV-resistant HSV-1; day 9 after infection): 4 | The number of survived animals (n = 10) (ACV-resistant HSV-1; day 10 after infection): 2 | The number of survived animals (n = 10) (ACV-resistant HSV-1; day 11 after infection): 2 | The number of survived animals (n = 10) (ACV-resistant HSV-1; day 12 after infection): 2 | The number of survived animals (n = 10) (ACV-resistant HSV-1; day 14 after infection): 2 | The number of survived animals (n = 10) (ACV-resistant HSV-1; day 16 after infection): 2 | The number of survived animals (n = 10) (ACV-resistant HSV-1; day 17 after infection): 2

O=C(CN(C(=O)C1CCS(=O)(=O)CC1)c1ccc2c(c1)CCC2)Nc1ccc(-c2ncon2)cc1 [Preparation 33, N-(2,3-dihydro-1H-inden-5-yl)-N-(2-{[4-(1,2,4-oxadiazol-3-yl)phenyl]amino}-2-oxoethyl)tetrahydro-2H-thiopyran-4-carboxamide 1,1-dioxide]
Inhibition ratio (%) (disease inhibitory rate vs placebo from AUC of mean disease score) (HSV-1 strain WT-51; methyl cellulose suspension): 79%

Cc1ccc(N(CC(=O)Nc2ccc(-c3cocn3)cc2)C(=O)C2CCS(=O)(=O)CC2)c(F)c1 [Preparation 20, N-(2-fluoro-4-methylphenyl)-N-(2-{[4-(1,3-oxazol-4-yl)phenyl]amino}-2-oxoethyl)tetrahydro-2H-thiopyran-4-carboxamide 1,1-dioxide]
Inhibition ratio (%) (disease inhibitory rate vs placebo from AUC of mean disease score) (HSV-1 strain WT-51; methyl cellulose suspension): 91%

Cc1cc(F)cc(C)c1N(CC(=O)Nc1ccc(-c2ncon2)cc1)C(=O)C1CCS(=O)(=O)CC1 [Preparation 31, N-(4-fluoro-2,6-dimethylphenyl)-N-(2-{[4-(1,2,4-oxadiazol-3-yl)phenyl]amino}-2-oxoethyl)tetrahydro-2H-thiopyran-4-carboxamide 1,1-dioxide]
Inhibition ratio (%) (disease inhibitory rate vs placebo from AUC of mean disease score) (HSV-1 strain WT-51; [1]): * 86%

Cc1cc(N(CC(=O)Nc2ccc(-c3cocn3)cc2)C(=O)C2CCS(=O)(=O)CC2)ccc1Cl [Preparation 13, N-(4-chloro-3-methylphenyl)-N-(2-{[4-(1,3-oxazol-4-yl)phenyl]amino}-2-oxoethyl)tetrahydro-2H-thiopyran-4-carboxamide 1,1-dioxide]
Inhibition ratio (%) (disease inhibitory rate vs placebo from AUC of mean disease score) (HSV-1 strain WT-51; methyl cellulose suspension): 89%

O=C(CN(C(=O)C1CCS(=O)(=O)CC1)c1ccc2c(c1)CCC2)Nc1ccc(-c2cocn2)cc1 [Preparation 11, N-(2,3-dihydro-1H-inden-5-yl)-N-(2-{[4-(1,3-oxazol-4-yl)phenyl]amino}-2-oxoethyl)tetrahydro-2H-thiopyran-4-carboxamide 1,1-dioxide]
Inhibition ratio (%) (disease inhibitory rate vs placebo from AUC of mean disease score) (HSV-1 strain WT-51; methyl cellulose suspension): 92%

Cc1cccc(N(CC(=O)Nc2ccc(-c3cocn3)cc2)C(=O)C2CCS(=O)(=O)CC2)c1 [Preparation 3, N-(3-methylphenyl)-N-(2-{[4-(1,3-oxazol-4-yl)phenyl]amino}-2-oxoethyl)tetrahydro-2H-thiopyran-4-carboxamide 1,1-dioxide]
Inhibition ratio (%) (disease inhibitory rate vs placebo from AUC of mean disease score) (HSV-1 strain WT-51; methyl cellulose suspension): 70%

Cc1ccc(N(CC(=O)Nc2ccc(-c3cocn3)cc2)C(=O)C2CCS(=O)(=O)CC2)cc1C [Preparation 8, N-(3,4-dimethylphenyl)-N-(2-{[4-(1,3-oxazol-4-yl)phenyl]amino}-2-oxoethyl)tetrahydro-2H-thiopyran-4-carboxamide 1,1-dioxide]
Inhibition ratio (%) (disease inhibitory rate vs placebo from AUC of mean disease score) (HSV-1 strain WT-51; methyl cellulose suspension): 91%

COc1ccc(N(CC(=O)Nc2ccc(-c3csc(N)n3)cc2)C(=O)C2CCC(O)CC2)cc1 (centres unmarked) [Comparative compound C, reference compound]
Inhibition ratio (%) (disease inhibitory rate vs placebo from AUC of mean disease score) (HSV-1 strain WT-51; methyl cellulose suspension): 44%

COc1ccc(N(CC(=O)Nc2ccc(-c3csc(N)n3)cc2)C(=O)C2CCS(=O)(=O)CC2)cc1 [Comparative compound B, reference compound]
Inhibition ratio (%) (disease inhibitory rate vs placebo from AUC of mean disease score) (HSV-1 strain WT-51; methyl cellulose suspension): 2%

Cc1cc(N(CC(=O)Nc2ccc(-c3ncon3)cc2)C(=O)C2CCS(=O)(=O)CC2)ccc1Cl [Preparation 37, N-(4-chloro-3-methylphenyl)-N-(2-{[4-(1,2,4-oxadiazol-3-yl)phenyl]amino}-2-oxoethyl)tetrahydro-2H-thiopyran-4-carboxamide 1,1-dioxide]
Inhibition ratio (%) (disease inhibitory rate vs placebo from AUC of mean disease score) (HSV-1 strain WT-51; methyl cellulose suspension): 100%

Cc1cccc(C)c1N(CC(=O)Nc1ccc(-c2cocn2)cc1)C(=O)C1CCS(=O)(=O)CC1 [Preparation 1, N-(2,6-dimethylphenyl)-N-(2-{[4-(1,3-oxazol-4-yl)phenyl]amino}-2-oxoethyl)tetrahydro-2H-thiopyran-4-carboxamide 1,1-dioxide]
Inhibition ratio (%) (disease inhibitory rate vs placebo from AUC of mean disease score) (HSV-1 strain WT-51; [1]): * 93%

Cc1cccc(N(CC(=O)Nc2ccc(-c3ncon3)cc2)C(=O)C2CCS(=O)(=O)CC2)c1C [Preparation 24, N-(2,3-dimethylphenyl)-N-(2-{[4-(1,2,4-oxadiazol-3-yl)phenyl]amino}-2-oxoethyl)tetrahydro-2H-thiopyran-4-carboxamide 1,1-dioxide]
Inhibition ratio (%) (disease inhibitory rate vs placebo from AUC of mean disease score) (HSV-1 strain WT-51; methyl cellulose suspension): 89%

Cc1ccc(N(CC(=O)Nc2ccc(-c3ncon3)cc2)C(=O)C2CCS(=O)(=O)CC2)c(C)c1F [Preparation 39, N-(3-fluoro-2,4-dimethylphenyl)-N-(2-{[4-(1,2,4-oxadiazol-3-yl)phenyl]amino}-2-oxoethyl)tetrahydro-2H-thiopyran-4-carboxamide 1,1-dioxide]
Inhibition ratio (%) (disease inhibitory rate vs placebo from AUC of mean disease score) (HSV-1 strain WT-51; methyl cellulose suspension): 80%

Cc1ccc(N(CC(=O)Nc2ccc(-c3cocn3)cc2)C(=O)C2CCS(=O)(=O)CC2)cc1F [Preparation 14, N-(3-fluoro-4-methylphenyl)-N-(2-{[4-(1,3-oxazol-4-yl)phenyl]amino}-2-oxoethyl)tetrahydro-2H-thiopyran-4-carboxamide 1,1-dioxide]
Inhibition ratio (%) (disease inhibitory rate vs placebo from AUC of mean disease score) (HSV-1 strain WT-51; methyl cellulose suspension): 98%

Nc1nc(-c2ccc(NC(=O)CN(C(=O)C3CCS(=O)(=O)CC3)c3ccc4c(c3)CCC4)cc2)cs1 [Comparative compound D, reference compound]
Inhibition ratio (%) (disease inhibitory rate vs placebo from AUC of mean disease score) (HSV-1 strain WT-51; methyl cellulose suspension): 43%

Nc1nc(-c2ccc(NC(=O)CN(C(=O)c3ccc(F)cc3)c3ccc4ncsc4c3)cc2)cs1 [Comparative compound A, reference compound]
Inhibition ratio (%) (disease inhibitory rate vs placebo from AUC of mean disease score) (HSV-1 strain WT-51; methyl cellulose suspension): 38%

Cc1ccc(N(CC(=O)Nc2ccc(-c3cocn3)cc2)C(=O)C2CCS(=O)(=O)CC2)c(C)c1 [Preparation 6, N-(2,4-dimethylphenyl)-N-(2-{[4-(1,3-oxazol-4-yl)phenyl]amino}-2-oxoethyl)tetrahydro-2H-thiopyran-4-carboxamide 1,1-dioxide]
Inhibition ratio (%) (disease inhibitory rate vs placebo from AUC of mean disease score) (HSV-1 strain WT-51; methyl cellulose suspension): 92%

Cc1ccc(N(CC(=O)Nc2ccc(-c3ncon3)cc2)C(=O)C2CCS(=O)(=O)CC2)c(C)c1 [Preparation 25, N-(2,4-dimethylphenyl)-N-(2-{[4-(1,2,4-oxadiazol-3-yl)phenyl]amino}-2-oxoethyl)tetrahydro-2H-thiopyran-4-carboxamide 1,1-dioxide]
Inhibition ratio (%) (disease inhibitory rate vs placebo from AUC of mean disease score) (HSV-1 strain WT-51; [1]): * 70%

Cc1ccc(N(CC(=O)Nc2ccc(-c3cocn3)cc2)C(=O)C2CCS(=O)(=O)CC2)c(C)c1F [Preparation 17, N-(3-fluoro-2,4-dimethylphenyl)-N-(2-{[4-(1,3-oxazol-4-yl)phenyl]amino}-2-oxoethyl)tetrahydro-2H-thiopyran-4-carboxamide 1,1-dioxide]
Inhibition ratio (%) (disease inhibitory rate vs placebo from AUC of mean disease score) (HSV-1 strain WT-51; methyl cellulose suspension): 94%
